Measurements as given in patent US11000033B2, “Ketone or oxime compound, and herbicide” (NISSAN CHEMICAL CORPORATION, priority 2014, dated 2021).

Legend:
Assay type in all cases: in vivo
[1] = system: Echinochloa oryzacola Vasing.; assay: Test Example 1: herbicidal activity, application before weed generation in submerged conditions (symbol A); conditions: application herbicide amount 320 g/ha
In short: (§1)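 Paddy pre-emergence test. Formulated emulsion, water-diluted to a predetermined rate, is applied to floodwater on sowing day; rice transplanted at 2.5 leaves. Effect read at 3 weeks on a 0–5 herbicidal-ratio scale.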

Monochoria vaginalis = assay: Test Example 1: herbicidal activity, application before weed generation in submerged conditions (symbol C); conditions: application herbicide amount 320 g/ha
In short: as §1

Leptochloa chinensis = assay: Test Example 3: herbicidal effect by foliage application, Wagner pot (symbol D); conditions: application herbicide amount 320 g/ha
In short: (§2)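 Foliar spray of a water-diluted emulsion at a predetermined herbicide amount, applied to 14-day-old plants. Seedlings were raised in flooded alluvial soil (0.1–0.5 cm water) at 25–30 °C in a greenhouse. Injury was rated after 3 weeks against fixed criteria.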

Cyperus difformis = assay: Test Example 3: herbicidal effect by foliage application, Wagner pot (symbol E); conditions: application herbicide amount 320 g/ha
In short: as §2

Lolium multiflorum Lam. = assay: Test Example 4: herbicidal effect by soil treatment (symbol K); conditions: for K: Lolium multiflorum Lam., herbicidal effect grade: 320 g/ha
In short: (§3)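 Seeds were sown in sterilized diluvial soil, covered with about 1.5 cm of soil, and the soil surface was sprayed with a water-diluted emulsion of the compound at a predetermined rate. Plants grew in a greenhouse at 25° C. to 30° C.; effects were scored visually 3 weeks after application.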

Amaranthus retroflexus = assay: Test Example 4: herbicidal effect by soil treatment (symbol N); conditions: for N: Amaranthus retroflexus, herbicidal effect grade: 320 g/ha
In short: as §3

Chenopodium album [2] = assay: Test Example 4: herbicidal effect by soil treatment (symbol O); conditions: for O: Chenopodium album, herbicidal effect grade: 320 g/ha
In short: as §3

Galium spurium = assay: Test Example 4: herbicidal effect by soil treatment (symbol Q); conditions: for Q: Galium spurium, herbicidal effect grade: 320 g/ha
In short: as §3

rice = assay: Test Example 4: effect on crop by soil treatment (symbol b); conditions: for b: directly sowed rice plant, effect grade on crop: 320 g/ha
In short: (§4)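 Greenhouse culture at 25° C. to 30° C. followed sowing of seed in spots on sterilized diluvial soil with a soil cover close to 1.5 cm thick.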

wheat [3] = assay: Test Example 4: effect on crop by soil treatment (symbol e); conditions: for e: wheat, effect grade on crop: 320 g/ha
In short: as §4

beet = assay: Test Example 4: effect on crop by soil treatment (symbol f); conditions: for f: beet, effect grade on crop: 320 g/ha
In short: as §4

rapeseed = assay: Test Example 4: effect on crop by soil treatment (symbol g); conditions: for g: rapeseed, effect grade on crop: 320 g/ha
In short: as §4

Avena fatua = assay: Test Example 5: herbicidal effect by foliage application, plastic box (symbol I); conditions: 320 g/ha, 3 weeks after application
In short: (§5)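 After sowing into sterilized diluvial soil and growing two weeks under glass at 25° C. to 30° C., seedlings receive a uniform foliar spray of diluted emulsion. Damage is judged visually three weeks on.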

Apera spica-venti = assay: Test Example 5: herbicidal effect by foliage application, plastic box (symbol L); conditions: 320 g/ha, 3 weeks after application
In short: as §5

Abutilon theophrasti = assay: Test Example 5: herbicidal effect by foliage application, plastic box (symbol M); conditions: 320 g/ha, 3 weeks after application
In short: as §5

Chenopodium album [4] = assay: Test Example 5: herbicidal effect by foliage application, plastic box (symbol O); conditions: 320 g/ha, 3 weeks after application
In short: as §5

Stellaria media = assay: Test Example 5: herbicidal effect by foliage application, plastic box (symbol P); conditions: 320 g/ha, 3 weeks after application
In short: as §5

rice plant = assay: Test Example 5: effect on crop by foliage application, plastic box (symbol b); conditions: 320 g/ha, 3 weeks after application
In short: (§6)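 Greenhouse test at 25° C. to 30° C. Seeds of crops and weeds were spot-sown in boxes of sterilized diluvial soil under roughly 1.5 cm soil cover, then grown for foliage treatment.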

wheat [5] = assay: Test Example 5: effect on crop by foliage application, plastic box (symbol e); conditions: 320 g/ha, 3 weeks after application
In short: as §6

[6] = application herbicide amount 320 g/ha

| Compound | Herbicidal effect grade, A: Echinochloa oryzacola Vasing. [1] | Herbicidal effect grade, C: Monochoria vaginalis (Monochoria vaginalis) | herbicidal effect on D (Leptochloa chinensis), grade 0-5 (Leptochloa chinensis) | herbicidal effect on E, grade 0-5 (Cyperus difformis) | K: Lolium multiflorum Lam., herbicidal effect grade (Lolium multiflorum Lam.) | N: Amaranthus retroflexus, herbicidal effect grade (Amaranthus retroflexus) | O: Chenopodium album, herbicidal effect grade (Chenopodium album [2]) | Q: Galium spurium, herbicidal effect grade (Galium spurium) | b: directly sowed rice plant, effect grade on crop (rice) | e: wheat, effect grade on crop (wheat [3]) | f: beet, effect grade on crop (beet) | g: rapeseed, effect grade on crop (rapeseed) | I: Avena fatua, herbicidal effect (criteria 0-5) (Avena fatua) | L: Apera spica-venti, herbicidal effect (criteria 0-5) (Apera spica-venti) | M: Abutilon theophrasti, herbicidal effect (criteria 0-5) (Abutilon theophrasti) | O: Chenopodium album, herbicidal effect (criteria 0-5) (Chenopodium album [4]) | P: Stellaria media, herbicidal effect (criteria 0-5) (Stellaria media) | b: directly sowed rice plant, effect on crop (criteria 0-5) (rice plant) | e: wheat, effect on crop (criteria 0-5) (wheat [5]) | I: Avena fatua, herbicidal effect grade (Avena fatua) | also measured |
| --- | --- | --- | --- | --- | --- | --- | --- | --- | --- | --- | --- | --- | --- | --- | --- | --- | --- | --- | --- | --- | --- |
| CCCON=C(C)CC1CC(O)=C(c2c(C)cc(C)cc2C)C1=O (stereo not shown) [1-123] | 5 (Herbicidal ratio of 90% or more (almost completely withered)) | 3 (Herbicidal ratio of 40% or higher and lower than 70%) | 5 (Herbicidal ratio of 90% or more (almost completely withered)) | 4 (Herbicidal ratio of 70% or higher and lower than 90%) | 5 (Herbicidal ratio of 90% or more (almost completely withered)) | 0 (Herbicidal ratio of 5% or lower (almost no effect)) | 0 (Herbicidal ratio of 5% or lower (almost no effect)) | 0 (Herbicidal ratio of 5% or lower (almost no effect)) | 5 (Herbicidal ratio of 90% or more (almost completely withered)) | 0 (Herbicidal ratio of 5% or lower (almost no effect)) | 0 (Herbicidal ratio of 5% or lower (almost no effect)) | 3 (Herbicidal ratio of 40% or higher and lower than 70%) | 5 (Herbicidal ratio of 90% or more (almost completely withered)) | 5 (Herbicidal ratio of 90% or more (almost completely withered)) | 4 (Herbicidal ratio of 70% or higher and lower than 90%) | 0 (Herbicidal ratio of 5% or lower (almost no effect)) | 3 (Herbicidal ratio of 40% or higher and lower than 70%) | 5 (Herbicidal ratio of 90% or more (almost completely withered)) | 5 (Herbicidal ratio of 90% or more (almost completely withered)) | – | – |
| CON=C(C)CC1CC(OS(C)(=O)=O)=C(c2c(C)cc(C)cc2C)C1=O (stereo not shown) [1-006] | 5 (Herbicidal ratio of 90% or more (almost completely withered)) | 3 (Herbicidal ratio of 40% or higher and lower than 70%) | 5 (Herbicidal ratio of 90% or more (almost completely withered)) | 5 (Herbicidal ratio of 90% or more (almost completely withered)) | – | – | – | – | – | – | – | – | – | – | – | – | – | – | – | 5 (Herbicidal ratio of 90% or more (almost completely withered)) | K (Lolium multiflorum Lam.) herbicidal effect grade (Lolium multiflorum Lam.; [6]): 5 (Herbicidal ratio of 90% or more (almost completely withered)); N (Amaranthus retroflexus) herbicidal effect grade (Amaranthus retroflexus; [6]): 4 (Herbicidal ratio of 70% or higher and lower than 90%); O (Chenopodium album) herbicidal effect grade (Chenopodium album [2]; [6]): 0 (Herbicidal ratio of 5% or lower (almost no effect)); Q (Galium spurium) herbicidal effect grade (Galium spurium; [6]): 0 (Herbicidal ratio of 5% or lower (almost no effect)); b (directly sowed rice plant) effect on crop grade (rice; [6]): 5 (Herbicidal ratio of 90% or more (almost completely withered)); e (wheat) effect on crop grade (wheat [3]; [6]): 0 (Herbicidal ratio of 5% or lower (almost no effect)); f (beet) effect on crop grade (beet; [6]): 0 (Herbicidal ratio of 5% or lower (almost no effect)); g (rapeseed) effect on crop grade (rapeseed; [6]): 0 (Herbicidal ratio of 5% or lower (almost no effect)); L: Apera spica-venti, herbicidal effect grade (Apera spica-venti): 5 (Herbicidal ratio of 90% or more (almost completely withered)); M: Abutilon theophrasti, herbicidal effect grade (Abutilon theophrasti): 4 (Herbicidal ratio of 70% or higher and lower than 90%); O: Chenopodium album, herbicidal effect grade (Chenopodium album [4]): 0 (Herbicidal ratio of 5% or lower (almost no effect)); P: Stellaria media, herbicidal effect grade (Stellaria media): 0 (Herbicidal ratio of 5% or lower (almost no effect)); b: directly sowed rice plant, effect on crop grade (rice plant): 5 (Herbicidal ratio of 90% or more (almost completely withered)); e: wheat, effect on crop grade (wheat [5]): 3 (Herbicidal ratio of 40% or higher and lower than 70%) |
| CON=C(C)CC1(C)CC(O)=C(c2c(C)cc(C)cc2C)C1=O (mixture of isomers) [11-002] | – | – | – | – | – | – | – | – | – | – | – | – | – | – | – | – | – | – | – | 5 (Herbicidal ratio of 90% or more (almost completely withered)) | A (Echinochloa oryzacola Vasing.) herbicidal effect grade [1]: 2 (Herbicidal ratio of 20% or higher and lower than 40%); C (Monochoria vaginalis) herbicidal effect grade (Monochoria vaginalis): 0 (Herbicidal ratio of 5% or lower (almost no effect)); D (Leptochloa chinensis) herbicidal effect grade (Leptochloa chinensis; Table 24): 5 (Herbicidal ratio of 90% or more (almost completely withered)); E herbicidal effect grade (Cyperus difformis; Table 24): 4 (Herbicidal ratio of 70% or higher and lower than 90%); Herbicidal effect grade, K: Lolium multiflorum Lam. (Lolium multiflorum Lam.; [6]): 5 (Herbicidal ratio of 90% or more (almost completely withered)); Herbicidal effect grade, N: Amaranthus retroflexus (Amaranthus retroflexus; [6]): 0 (Herbicidal ratio of 5% or lower (almost no effect)); Herbicidal effect grade, O: Chenopodium album (Chenopodium album [2]; [6]): 0 (Herbicidal ratio of 5% or lower (almost no effect)); Herbicidal effect grade, Q: Galium spurium (Galium spurium; [6]): 0 (Herbicidal ratio of 5% or lower (almost no effect)); Effect on crop grade, b: directly sowed rice plant (rice; [6]): 4 (Herbicidal ratio of 70% or higher and lower than 90%); Effect on crop grade, e: wheat (wheat [3]; [6]): 0 (Herbicidal ratio of 5% or lower (almost no effect)); Effect on crop grade, f: beet (beet; [6]): 0 (Herbicidal ratio of 5% or lower (almost no effect)); Effect on crop grade, g: rapeseed (rapeseed; [6]): 2 (Herbicidal ratio of 20% or higher and lower than 40%); L: Apera spica-venti, herbicidal effect grade (Apera spica-venti): 5 (Herbicidal ratio of 90% or more (almost completely withered)); M: Abutilon theophrasti, herbicidal effect grade (Abutilon theophrasti): 0 (Herbicidal ratio of 5% or lower (almost no effect)); O: Chenopodium album, herbicidal effect grade (Chenopodium album [4]): 0 (Herbicidal ratio of 5% or lower (almost no effect)); P: Stellaria media, herbicidal effect grade (Stellaria media): 0 (Herbicidal ratio of 5% or lower (almost no effect)); b: directly sowed rice plant, effect on crop grade (rice plant): 5 (Herbicidal ratio of 90% or more (almost completely withered)); e: wheat, effect on crop grade (wheat [5]): 2 (Herbicidal ratio of 20% or higher and lower than 40%) |
| CON=C(C)CC1CC(OC(=O)CN(C)C(=O)c2ccccc2)=C(c2c(C)cc(C)cc2C)C1=O (stereo not shown) [1-139] | 5 (Herbicidal ratio of 90% or more (almost completely withered)) | 1 (Herbicidal ratio of 5% or higher and lower than 20%) | 5 (Herbicidal ratio of 90% or more (almost completely withered)) | 5 (Herbicidal ratio of 90% or more (almost completely withered)) | 5 (Herbicidal ratio of 90% or more (almost completely withered)) | 3 (Herbicidal ratio of 40% or higher and lower than 70%) | 0 (Herbicidal ratio of 5% or lower (almost no effect)) | 0 (Herbicidal ratio of 5% or lower (almost no effect)) | 5 (Herbicidal ratio of 90% or more (almost completely withered)) | 3 (Herbicidal ratio of 40% or higher and lower than 70%) | 0 (Herbicidal ratio of 5% or lower (almost no effect)) | 1 (Herbicidal ratio of 5% or higher and lower than 20%) | 5 (Herbicidal ratio of 90% or more (almost completely withered)) | 5 (Herbicidal ratio of 90% or more (almost completely withered)) | 2 (Herbicidal ratio of 20% or higher and lower than 40%) | 1 (Herbicidal ratio of 5% or higher and lower than 20%) | 3 (Herbicidal ratio of 40% or higher and lower than 70%) | 5 (Herbicidal ratio of 90% or more (almost completely withered)) | 5 (Herbicidal ratio of 90% or more (almost completely withered)) | – | – |
